From patent publication US8906357B2, “Treatment of multiple sclerosis with masitinib” (AB Science, priority 2010, dated 2014)
Several values for one entry are separate records, joined by “and”; a condition that tells them apart may be missing. Equal entries are not always repeated. Entries after “also recorded” stand apart in the source; their conditions may differ. Where two headings read alike, the source gives them in different places.

Legend:
[1] = tested on: wild-type and juxtamembrane-mutated c-Kit receptors; conditions: results in cell cycle arrest and apoptosis of c-Kit dependent cell lines; cited from earlier work
[2] = tested on: human cord blood MCs; conditions: cited from earlier work
[3] = tested on: patients with PPMS or rfSPMS;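 further: oral masitinib started at 3 or 6 mg/kg/day split twice daily, with up to two 1.5 mg/kg/day increases permitted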
Description: Patients were randomized to receive orally administered masitinib at an initial dose of 3 or 6 mg/kg/day b.i.d, with two dose increases of 1.5 mg/kg/day permitted in the event of lack of activity and manageable toxicity. Masitinib and placebo were supplied as 100 or 200 mg tablets. The initial study had three arms but this was amended to close the 3 mg/kg/day bid arm after approximately 1 year.
MS evaluations were performed at screening, at week 0 (baseline), at month 1, 2, 3, 6, 9, 12, 18 and 24 or at the withdrawal visit. […] Masitinib tolerance was assessed by clinical and biological safety parameters.
Patients having SPMS with relapse in the 2 years before inclusion were excluded. No oral or parenteral concomitant corticosteroids were permitted for the duration of study, except in case of protocol-defined demyelinating event (methylprednisolone at 1 g/day for 3 days). No immunomodulating, immunosuppressing, chemotherapy and paracetamol concomitant administration were permitted for the duration of the study. Concomitant analgesic without anti-inflammatory action and oral narcotic analgesic were not allowed on the day of a study visit until all efficacy evaluations were completed. Concomitant physical therapy was allowed in patients already receiving such therapy at study entry. To manage rash, a mandatory concomitant treatment (cetirizine, 10 mg/day for 30 days) was combined with masitinib.
The latter is a multidimensional, MS-specific outcome measure, comprising of a timed 25-foot walk (T25FW) test measuring leg function and ambulation, a 9-hole peg test (9-HPT) measuring arm and hand function and a Paced Auditory Serial Addition Test 3 seconds (PASAT-3″) measuring cognitive function. The MSFC was calculated as described in the National Multiple Sclerosis Society MSFC administration and scoring manual by averaging the z-scores from each components of the MSFC.
Adverse events (AE) were described by duration, intensity, relation to masitinib and course of action. Intensities were graded either mild (signs and symptoms are present without functional repercussions), moderate (there are functional repercussions without putting the patient's health at risk), or severe (functional alterations or incapacity or definite risk for the patient health).

[4] = tested on: mouse EAE model of MS; test: Mouse EAE model of MS (MOG-induced disease in C57BL/6 mice), daily clinical score; assay type: in vivo; conditions: days 26-35
Description: The ability and effect of masitinib in the inhibition of MC function in MS was explored using the EAE murine model. The myelin oligodendrocyte glycoprotein (MOG)-induced disease in C57BL/6 mice is considered to be a model for all progressive foinis of MS. C57BL/6 mice were immunized with 300 ng MOG35-55 peptide (an immunological target in the human disease) on days 0 (in complete Freund's adjuvant) and 7 (in incomplete Freund's adjuvant) and 250 ng pertussis was administered intravenously on days 0 and 2. Mice were scored daily by visual assessment of symptoms on a scale of 0-5 where 1 denotes a flaccid tail, 2 denotes hind limb weakness, 3 denotes hind limb paralysis, 4 denotes an inability to right from supine and 5 indicates death. Statistical analyzes of significance between mean clinical scores were performed using Bonferroni's Multiple Comparison Test-One way ANOVA or paired t tests. Statistical analyses were performed for the daily intervals between days 26-35. Five mice per experimental group were administrated the following treatment every day from the first day of immunization (day 0): • Vehicle (PBS) • Masitinib 25 mg/kg, 2 times per day, intraperitoneal injection • Masitinib 12.5 mg/kg, 2 times per day, intraperitoneal injection

[5] = tested on: patients with RRMS or rSPMS
Description: A multicenter, open-label, non-controlled, proof-of-concept clinical trial, designed to evaluate the efficacy and safety of oral masitinib administered at 3 or 6 mg/kg/day for 36 weeks in patients with RRMS or rSPMS.
Eligible patients should have had at least one active gadolinium lesion at any of the three MRI performed during an 8 week run-in period and an EDSS score within the range of 2.0 to 6.5 inclusive.

[6] = during the treatment period (W0 to W36)

Cc1ccc(NC(=O)c2ccc(CN3CCN(C)CC3)cc2)cc1Nc1nc(-c2cccnc2)cs1 [masitinib, 4-(4-methylpiperazin-1-ylmethyl)-N-[4-methyl-3-(4-pyridin-3ylthiazol-2-ylamino)phenyl]benzamide]
inhibitory effect on c-Kit receptors [1]: strong inhibitory effect | FcER1-mediated degranulation [2]: inhibition | MSFC mean percentage change from baseline ([3]; All (masitinib n = 24), M3, LOCF): 78% | MSFC mean percentage change from baseline ([3]; All (masitinib n = 24), M3, LOCF, listed as Masitinib): 78 ± 284% | MSFC mean percentage change from baseline ([3]; All (masitinib n = 24), M6, LOCF): 156 ± 274% | MSFC mean percentage change from baseline ([3]; All (masitinib n = 24), M9, LOCF): 70 ± 267% | MSFC mean percentage change from baseline ([3]; All (masitinib n = 24), M12, LOCF): 103 ± 189% | MSFC mean percentage change from baseline ([3]; All (masitinib n = 24), M18, LOCF): +96% | MSFC mean percentage change from baseline ([3]; All (masitinib n = 24), M18, LOCF, listed as Masitinib): 96 ± 191% | MSFC mean percentage change from baseline ([3]; PPMS (masitinib n = 9), M3, LOCF): +108% | MSFC mean percentage change from baseline ([3]; PPMS (masitinib n = 9), M3, LOCF, listed as Masitinib): 108 ± 435% | MSFC mean percentage change from baseline ([3]; PPMS (masitinib n = 9), M6, LOCF): 202 ± 353% | MSFC mean percentage change from baseline ([3]; PPMS (masitinib n = 9), M9, LOCF): 56 ± 410% | MSFC mean percentage change from baseline ([3]; PPMS (masitinib n = 9), M12, LOCF): 134 ± 268% | MSFC mean percentage change from baseline ([3]; PPMS (masitinib n = 9), M18, LOCF): +134% | MSFC mean percentage change from baseline ([3]; PPMS (masitinib n = 9), M18, LOCF, listed as Masitinib): 134 ± 268% | EDSS score course ([3]; PPMS population): stable | Mean 9-HPT raw score change ([3]; at month 18): -1.6 s | Mean PASAT-3″ raw score change ([3]; at month 18): +6.0 | Mean T25FW raw score change ([3]; at month 18): +1.6 seconds | death ([3]; during the study): No death | MSQLI subscale SSS, mean percentage change from baseline ([3]; ex-post, n = 4): −6.9 ± 29.0% | MSQLI subscale VIS, mean percentage change from baseline ([3]; ex-post, n = 4): 0 ± 0% | MSQLI subscale SF-36, mean percentage change from baseline ([3]; ex-post, n = 5): 12.7 ± 24.3% | MSQLI subscale PDQ, mean percentage change from baseline ([3]; ex-post, n = 6): 1.1 ± 11.7% | MSQLI subscale BoCS, mean percentage change from baseline ([3]; ex-post, n = 7): −3.1 ± 8.8% | MSQLI subscale MSSS, mean percentage change from baseline ([3]; ex-post, n = 7): 6.2 ± 9.4% | MSQLI subscale PES, mean percentage change from baseline ([3]; ex-post, n = 7): −3.9 ± 12.2% | MSQLI subscale BLCS, mean percentage change from baseline ([3]; ex-post, n = 8): 21.5 ± 72.4% | MSQLI subscale MFIS, mean percentage change from baseline ([3]; ex-post, n = 8): −3.0 ± 14.9% | MSQLI subscale MHI, mean percentage change from baseline ([3]; ex-post, n = 9): 15.2 ± 25.99% | number of AEs reported by investigators ([3]; masitinib group n = 27): 100 | patients reporting AEs (adverse events) ([3]; masitinib group n = 27): 85% | patients reporting a serious, non-fatal AE ([3]; masitinib group n = 27): 33% | patients reporting a severe AE suspected to be related to therapy ([3]; masitinib group n = 27): 26% | patients with an AE leading to masitinib discontinuation ([3]; masitinib group n = 27): 26% | Asthenia, number of patients ([3]; masitinib n = 27): 11 | Asthenia, percent of patients ([3]; masitinib n = 27): 41% | Diarrhea, number of patients ([3]; masitinib n = 27): 3 | Diarrhea, percent of patients ([3]; masitinib n = 27): 11% | Nausea, number of patients ([3]; masitinib n = 27): 7 | Nausea, percent of patients ([3]; masitinib n = 27): 26% | Rash, number of patients ([3]; masitinib n = 27): 3 | Rash, percent of patients ([3]; masitinib n = 27): 11% | Urinary Tract Infection, number of patients ([3]; masitinib n = 27): 3 | Urinary Tract Infection, percent of patients ([3]; masitinib n = 27): 11% | Weight Decreased, number of patients ([3]; masitinib n = 27): 3 | Weight Decreased, percent of patients ([3]; masitinib n = 27): 11% | effect on MSQLI subscales (SF-36, MFIS, PES, PDQ, MHI, MSSS) ([3]; over the course of treatment): improved | mean change in EDSS ([3]; overall, over 18 months): < 0.5 | MSFC mean percentage change from baseline ([3]; rfSPMS (masitinib n = 15), M3, LOCF): +60% | MSFC mean percentage change from baseline ([3]; rfSPMS (masitinib n = 15), M3, LOCF, listed as Masitinib): 60 ± 152% | MSFC mean percentage change from baseline ([3]; rfSPMS (masitinib n = 15), M6, LOCF): 129 ± 223% | MSFC mean percentage change from baseline ([3]; rfSPMS (masitinib n = 15), M9, LOCF): 78 ± 146% | MSFC mean percentage change from baseline ([3]; rfSPMS (masitinib n = 15), M12, LOCF): 84 ± 130% | MSFC mean percentage change from baseline ([3]; rfSPMS (masitinib n = 15), M18, LOCF): +73% | MSFC mean percentage change from baseline ([3]; rfSPMS (masitinib n = 15), M18, LOCF, listed as Masitinib): 73 ± 131% | EDSS score course ([3]; rfSPMS population): remained stable | brain volume (MS-related imaging) ([3]; throughout the study, masitinib group): two patients experienced a brain volume increase | p value, mean clinical score, vehicle versus masitinib 12.5 mg/kg ([4]; 12.5 mg/kg 2 times per day intraperitoneal): p < 0.001 | p value, mean clinical score, vehicle versus masitinib 25 mg/kg ([4]; 25 mg/kg 2 times per day intraperitoneal): p < 0.001 | p value, mean clinical score, masitinib 25 mg/kg versus masitinib 12.5 mg/kg ([4]; 2 times per day intraperitoneal): p < 0.001 | mean clinical score relative to vehicle ([4]; both doses (25 and 12.5 mg/kg 2 times per day i.p.)): significant differences in mean clinical score; also recorded: significant reduction in disease | tolerability overall ([5]; 3 or 6 mg/kg/day oral): relatively well tolerated | EDSS ([5]; 36-week study): neither improvement nor progression | average number of T1 lesions ([5]; after 12 weeks of treatment (run-in period 5.35), 4 patients): 1.5 lesions | average volume of T1 lesions ([5]; after 12 weeks of treatment (run-in period 777 mm^3)): 54 mm^3 | average number of T1 lesions ([5]; after 20 weeks of treatment (run-in period 5.35), 4 patients): 0.25 lesions | average volume of T1 lesions ([5]; after 20 weeks of treatment (run-in period 777 mm^3)): 40 mm^3 | T1 gadolinium-enhancing lesion number ([5]; all patients, at consecutive time points during the study): reduced to none | patients in whom both number and volume of T1 lesions decreased ([5]; during masitinib treatment): 3/4 | average number of T1 lesions [5, 6]: 1.0 lesion | average volume of T1 lesions [5, 6]: 99 mm^3 | number and volume of T2 hyperintense lesions and T1 hyperintense lesions ([5]; during treatment): remained globally stable | death ([5]; human, in vivo): No death | total AEs reported during the treatment period ([5]; in two patients, all at doses of ≧6 mg/kg/day): 11 | patients experiencing relapses during treatment ([5]; one patient out of four, three relapses): 25% | EDSS score maintained ([5]; patient in the study extension phase, to W84): 2.5 | relapse-free duration of individual patients ([5]; three patients, respectively): 7 months and 11.5 months and 25 months
